Counter-ions that a name gives are not always drawn.
Target: T1, human V1b receptors (Homo sapiens, UniProt P47901)
T1 construct: expressed in transfected cells; host or cells: CHO-K1 (membrane preparation V1b-3H2)
T1 sequence (P47901 1-424): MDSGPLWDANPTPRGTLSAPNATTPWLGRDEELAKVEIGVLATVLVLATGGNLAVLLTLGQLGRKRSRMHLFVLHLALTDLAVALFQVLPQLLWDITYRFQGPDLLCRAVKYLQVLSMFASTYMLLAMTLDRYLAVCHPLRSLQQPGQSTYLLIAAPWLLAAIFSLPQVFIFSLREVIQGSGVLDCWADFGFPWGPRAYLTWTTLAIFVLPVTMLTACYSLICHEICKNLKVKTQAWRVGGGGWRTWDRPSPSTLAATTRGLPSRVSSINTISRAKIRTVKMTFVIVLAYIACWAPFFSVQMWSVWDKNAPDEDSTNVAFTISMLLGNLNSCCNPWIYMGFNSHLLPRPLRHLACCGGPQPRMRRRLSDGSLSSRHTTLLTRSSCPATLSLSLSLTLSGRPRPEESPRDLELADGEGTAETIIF
Experiment: Vasopressin V1b receptor binding assay
Conditions: membranes from CHO-K1 cells expressing human V1b receptors, displacement of 1.5 nM 3H-AVP; read-out: Binding affinity for the vasopressin V1b receptor
Experimental: Vasopressin V1b Receptor Binding Assay
The binding of the compounds of this invention to the vasopressin V1b receptor was determined with the following assay:
Compounds were dissolved in a concentration of 10^−2 M or 10^−3 M in DMSO. Further dilutions were performed with water.
The procedure for the binding assay was based on the method of Tahara et al. (Tahara A et al., Brit. J. Pharmacol. 125, 1463-1470 (1998)). Assays (0.250 ml) consisted of membranes (58 μg protein) from CHO-K1 cells permanently expressing human V1b receptors (preparation V1b-3H2, containing protease inhibitors, Roche complete Mini #1836170), 1.5 nM ^3H-AVP (8-Arg-vasopressin, NET 800) in incubation buffer (total binding) and different concentrations of test compound (displacement). Non-specific binding was defined with 10^−6 M AVP. Assays were performed in triplicate.
Incubation buffer: 50 mM Tris, 10 mM MgCl2, 0.1% BSA adjusted to pH 7.4 with HCl.
After incubation, 60 min at room temperature, bound and free radioligand was separated by filtration under vacuum through Whatman GF/B glass fibre mats using a Skatron cell harvester 7000.
Liquid scintillation counting was performed in beta-counters, Tricarb model 2000 or 2200CA (Packard). Dpm were calculated by a programme with standardisation using a standard quench series.
Evaluation of binding parameters was performed by non-linear regression analysis with SAS. The strategy of this program is similar to the program LIGAND described by Munson and Rodbard (Munson PJ and Rodbard D, Analytical Biochem 107, 220-239 (1980)).

Row | Structure (SMILES) | Ki
1 | COc1ncccc1C1(OC(=O)N2CCN(C3CCN(C)CC3)CC2)C(=O)N(S(=O)(=O)c2ccccc2)c2ccc(Cl)cc21 (stereo not drawn) [Example 76, 4-(1-Methyl-piperidin-4-yl)-piperazine-1-carboxylic acid 1-benzenesulfonyl-5-chloro-3-(2-methoxy-pyridin-3-yl)-2-oxo-2,3-dihydro-1H-indol-3-yl ester] | < 50 nM
2 | COc1ccc(S(=O)(=O)N2C(=O)C(NC(=O)C3CCN(c4ccncc4)CC3)(c3cccnc3OC)c3cc(Cl)ccc32)c(OC)c1 (stereo not drawn) [Example 82, 3,4,5,6-Tetrahydro-2H-[1,4′]bipyridinyl-4-carboxylic acid [5-chloro-1-(2,4-dimethoxy-benzenesulfonyl)-3-(2-methoxy-pyridin-3-yl)-2-oxo-2,3-dihydro-1H-indol-3-yl]-amide] | < 50 nM
3 | CCOc1ccccc1C1(NC(=O)N2CCN(C3CCN(C)CC3)CC2)C(=O)N(S(=O)(=O)c2cccc3cccnc23)c2ccc(OC)cc21 (stereo not drawn) [Example 83, 4-(1-Methyl-piperidin-4-yl)-piperazine-1-carboxylic acid [3-(2-ethoxy-phenyl)-5-methoxy-2-oxo-1-(quinoline-8-sulfonyl)-2,3-dihydro-1H-indol-3-yl]-amide] | < 50 nM
4 | COc1ncccc1C1(OC(=O)N2CCC(N3CCN(C)CC3)CC2)C(=O)N(S(=O)(=O)c2ccccc2)c2ccc(Cl)cc21 (stereo not drawn) [Example 103, 4-(4-Methyl-piperazin-1-yl)-piperidine-1-carboxylic acid 1-benzenesulfonyl-5-chloro-3-(2-methoxy-pyridin-3-yl)-2-oxo-2,3-dihydro-1H-indol-3-yl ester] | < 50 nM
5 | COc1ncccc1C1(OC(=O)N2CCN(C3CCN(C)CC3)CC2)C(=O)N(S(=O)(=O)c2ccc(C#N)cc2)c2ccc(Cl)cc21 (stereo not drawn) [Example 113, 4-(1-Methyl-piperidin-4-yl)-piperazine-1-carboxylic acid 5-chloro-1-(4-cyano-benzenesulfonyl)-3-(2-methoxy-pyridin-3-yl)-2-oxo-2,3-dihydro-1H-indol-3-yl ester diacetate] | < 50 nM
6 | COc1ccc(S(=O)(=O)N2C(=O)C(OC(=O)N3CCN(C4CCN(C)CC4)CC3)(c3cccnc3OC)c3cc(Cl)ccc32)cc1 (stereo not drawn) [Example 115, 4-(1-Methyl-piperidin-4-yl)-piperazine-1-carboxylic acid 5-chloro-1-(4-methoxy-benzenesulfonyl)-3-(2-methoxy-pyridin-3-yl)-2-oxo-2,3-dihydro-1H-indol-3-yl ester diacetate] | < 50 nM

Results, then the compound that gave them:

Row | Ki | Structure (SMILES)
7 | < 50 nM | COc1ccc(S(=O)(=O)N2C(=O)C(OC(=O)N3CCN(C4CCN(C)CC4)CC3)(c3ccccn3)c3cc(Cl)ccc32)c(OC)c1 (stereo not drawn) [Example 104, 4-(1-Methyl-piperidin-4-yl)-piperazine-1-carboxylic acid 5-chloro-1-(2,4-dimethoxy-benzenesulfonyl)-2-oxo-3-pyridin-2-yl-2,3-dihydro-1H-indol-3-yl ester trishydrochloride]
8 | < 50 nM | COc1ccc(S(=O)(=O)N2C(=O)C(OC(=O)N3CCN(C4CCN(C)CC4)CC3)(c3cccnc3OC)c3cc(Cl)ccc32)c(OC)c1 (stereo not drawn) [Example 105, 4-(1-Methyl-piperidin-4-yl)-piperazine-1-carboxylic acid 5-chloro-1-(2,4-dimethoxy-benzenesulfonyl)-3-(2-methoxy-pyridin-3-yl)-2-oxo-2,3-dihydro-1H-indol-3-yl ester]
9 | < 50 nM | COc1ccc(S(=O)(=O)N2C(=O)C(OC(=O)N3CCC(N4CCN(C)CC4)CC3)(c3cccnc3OC)c3cc(C)ccc32)c(OC)c1 (stereo not drawn) [Example 107, 4-(4-Methyl-piperazin-1-yl)-piperidine-1-carboxylic acid 1-(2,4-dimethoxy-benzenesulfonyl)-3-(2-methoxy-pyridin-3-yl)-5-methyl-2-oxo-2,3-dihydro-1H-indol-3-yl ester]
